Assay results published in patent publication US6716442B2, “Process and means for the eradication of fleas in the habitats of small mammals” (Merial, priority 1997, dated 2004).
Like-named read-outs stand apart in the source and are kept apart here.

Columns and labels:
[1] = system: fleas (Ctenocephalides felis); experiment: Eradication of fleas in enclosures of infested dogs treated monthly with a spot-on solution; format: in vivo; conditions: group C, 10% fipronil cutaneous point solution on days 0, 28, 56, 84, weekly egg counts, body and comb counts over weeks 1-12, regularly reinfested
From the text: The test used dogs in good health.
The dogs were divided by groups of three dogs into enclosures of area approximately 4.80 m long (16 feet) and 1.5 m wide (5 feet) each containing a shelter and soil especially favourable to the development of the immature stages of the fleas (Ctenocephalides felis).
A total of 18 dogs, that is to say six enclosures, was allocated to the control group A.
A group C of six dogs (2 enclosures) preinfested in this way received the treatment according to the invention by application of a cutaneous point solution having a concentration of 10% of fipronil.
The doses of concentrated composition for local cutaneous application of fipronil were as follows:
The animals of group C were treated on day 0 and then every 28 days, that is to say the days 28, 56 and 84.

fleas [2] = experiment: Similar flea eradication test on cats; format: in vivo; conditions: same results as dogs
fleas [3] = conditions: dogs; concentrated solution for point application (spot on); cited from earlier work
fleas [4] = conditions: cats; concentrated solution for point application (spot on); cited from earlier work

SMILES: N#Cc1nn(-c2c(Cl)cc(C(F)(F)F)cc2Cl)c(N)c1[S+]([O-])C(F)(F)F (stereo not shown) [fipronil, 1-[2,6-Cl2-4-CF3-phenyl]-3-CN-4-[SO—CF3]-5-NH2-pyrazole]
- rate of control of the infestation [1]: 100%
- reinfestation (fleas [2]): total absence of reinfestation
- period of anti-flea efficacy (fleas [3]): 2 to 3 months
- period of anti-flea efficacy (fleas [4]): six
